Assay results reported in patent US7524811B2, “Anti-angiogenic peptides from the N-terminus of endostatin” (Children's Medical Center Corporation, priority 2003, dated 2009).
Several values for one entry are separate records, joined by “and”; a condition that tells them apart may be missing. Equal entries are not always repeated. Entries after “also recorded” stand apart in the source; their conditions may differ. No end group written: not given here.

Legend:
LLC tumors [1] = assay: Lewis lung carcinoma (LLC) tumor model, systemic s.c. treatment; format: in vivo, C57B1/6J mice; conditions: peptide s.c. twice a day, 2.8 mg/kg/d, vs PBS
Procedure: The murine LLC tumor model (O'Reilly et al. (1994) Cell, 79: 315-328) was used to further characterize these peptides because this tumor grows more rapidly than BxPC-3 cells, allowing for shorter treatment periods. Murine analogs of the endostatin peptides were synthesized. The only difference between the human and murine peptides was that murine P1 peptide contained 27 amino acids instead of 25 amino acids for human P1.
Control mice were treated with PBS. In these experiments, LLC cells were implanted into the s.c. dorsa of C57B1/6J mice, and systemically treated. Peptides (mP1, mP2, mP5, and mP6) were injected (s.c.) twice a day at a dose of 2.8 mg/kg/d, whereas endostatin and PBS were administered once a day at a dose of 20 mg/kg/d.
BxPC-3 and LLC cells were grown in cell culture as described above. […] Mice were shaved and the dorsal skin was cleaned with ethanol before tumor cell injection. A suspension of 5×10^6 tumor cells in 0.1 ml RPMI-1640 (for BxPC-3) or DMEM (for LLC) was injected subcutaneously (s.c.) into the dorsa of mice at the proximal midline. BxPC-3 cells were implanted in SCID mice and LLC in C57B1/6J mice.
Animals with Lewis Lung carcinoma (600-800 mm^3 tumors) were euthanized, and the skin overlying the tumor was cleaned with Betadine and ethanol. Tumor tissue was excised under aseptic conditions. A suspension of tumor cells in 0.9% normal saline was made by passage of viable tumor tissue through a sieve and a series of sequentially smaller hypodermic needles of diameter 22- to 30-gauge. The final concentration was adjusted to 1×10^7 cells/ml, and the suspension was placed on ice. The injection of tumor cells was performed as described above.
The mice were weighed and tumors were measured every 3-5 days in two diameters with a dial-caliper. Volumes were determined using the formula a^2×b×0.52 (where a is the shortest and b is the longest diameter). Data is represented as volume of treated tumor over control (T/C). At the completion of each experiment, the mice were euthanized with CO2 asphyxiation. Tumors were fixed in 10% buffered Formalin (Fisher Scientific, Fair Lawn, N.J.) and paraffin-embedded.
For treatment of tumor-bearing mice, tumor volumes were allowed to grow to approximately 100 mm^3, and mice were randomized. Treatment was performed by single bolus s.c. injections. Peptides were administered twice a day (every 12 hrs). Doses indicated for peptides were corrected for the purity of peptides (approximately 70%). For example, mice injected with 4 mg/kg/d peptide, were actually injected with 2.8 mg/kg/d after correction. The unpaired Student t-test was used for statistical analysis.

[2] = tested on: human pancreatic tumor cells BxPC-3; assay: BxPC-3 tumor model, systemic s.c. treatment; format: in vivo, SCID mice; conditions: peptide s.c. twice a day, 7 mg/kg/d; for inhibition of BxPC-3 tumor: final measurement at 28 days, n=3, vs PBS
Procedure: These peptides were initially tested for anti-tumor activity employing the human pancreatic tumor cells BxPC-3 cells, which were implanted in the s.c. dorsa of SCID mice. For systemic treatment, human endostatin peptides, P1-P8, were administered subcutaneously (s.c.) twice a day at 7 mg/kg/d due to the high clearance rate from the mouse circulation. Full-length Fc-Endostatin, hFcES was administered subcutaneously only once per day at a dose of 20 mg/kg/d. PBS was used as a control.
Human BxPC-3 pancreatic adenocarcinoma and Lewis lung carcinoma (LLC) cells were grown and maintained as described earlier (Kisker et al. (2001) Cancer Res, 61:7669-7674; O'Reilly et al. (1994) Cell, 79: 315-328). For BxPC-3 tumor cell injection, cells were grown in 900-cm2 roller bottles. Human microvascular endothelial cells (HMVEC-d; Clonetics, Walkersville, Md.) were cultured in microvascular endothelial cell growth medium (EGM-2 MV; Clonetics) and maintained at 5% CO2 in a 37° C. humidified incubator. Recombinant human endostatin was a generous gift from EntreMed Corporation (Rockville, Md.) and recombinant human and murine FcEndostatin were prepared as described earlier (Bergers et al. (1999) Science, 284: 808-812). Human and murine endostatin peptides were synthesized by SynPep Corporation (Dublin, Calif.). Peptides were resuspended in PBS or 50 mM Tris, 150 mM NaCl, pH 7.5. PECAM, purified rat anti-mouse CD31, was obtained from BD Pharmingen (San Diego, Calif.) and human recombinant VEGF was obtained from the NIH (Bethesda, Md.).
BxPC-3 and LLC cells were grown in cell culture as described above. […] Mice were shaved and the dorsal skin was cleaned with ethanol before tumor cell injection. A suspension of 5×10^6 tumor cells in 0.1 ml RPMI-1640 (for BxPC-3) or DMEM (for LLC) was injected subcutaneously (s.c.) into the dorsa of mice at the proximal midline. […]
The mice were weighed and tumors were measured every 3-5 days in two diameters with a dial-caliper. Volumes were determined using the formula a^2×b×0.52 (where a is the shortest and b is the longest diameter). […]

[3] = tested on: human microvascular endothelial cells (HMVECs); assay: VEGF-induced endothelial cell migration, modified Boyden chamber; format: cell-based; conditions: VEGF 5 ng/ml; for concentration at which VEGF-induced EC migration was inhibited: 25 ng/ml peptide equimolar to 200 ng/ml endostatin
Procedure: Endostatin peptides were tested for anti-endothelial cell migration activity. Inhibition of VEGF-induced migration of human microvascular endothelial cells (HMVECs) was determined using several doses of endostatin peptides (FIG. 5). Human peptides were used because the cells were of human origin and the migration response of the HMVECs was assayed using a modified Boyden chamber. VEGF (5 ng/ml) was used a chemotactic agent and cells were challenged with human endostatin (Entremed; EM-ES), human Fc-Endostatin (nFcES), human P1 (hP1), human P2 (hP2), human P6 (hP6), and human P1-H1/3A (hP1-H1/3A). Total migration per membrane was quantified from the capture images using Scion Image Software (National Institutes of Health) and the unpaired Student T test was used for statistical analysis.
The motility response of HMVEC-d cells was assayed using a modified Boyden chamber. Cells were plated in T75-cm2 flasks at 0.5×10^6 cells per flask and allowed to grow for 48 h (˜70% confluent) prior to the migration assay. To facilitate cell adhesion, the upper membrane of a transwell ([…]; Costar) was coated with fibronectin ([…]; Becton Dickinson, Bedford, Mass.) for 1 h at 37° C. Coated membranes were rinsed with PBS and allowed to air dry immediately before use. Cells were detached by trypsinization, treated with trypsinization neutralization solution (Clonetics), and resuspended at a final concentration of 1×10^6 cells/ml in serum-free endothelial basal medium (EBM; Clonetics) containing 0.1% BSA. Cells (200,000 in 0.2 ml) were then treated with 0.2 ml of EBM/BSA containing endostatin or peptides at the indicated concentrations. Cells were incubated for 20 min. at 37° C. with occasional shaking. Cells (50,000 in 100 μl) were added to the upper chamber of the transwell. EBM or EBM supplemented with VEGF (5 ng/ml) was added to the lower chamber and cells were allowed to migrate toward the bottom chamber for 4 h in a humidified incubator containing 5% CO2. Transwell filters were rinsed once with PBS and fixed and stained using a Diff-Quik staining kit (Baxter) following the manufacturer's protocol. Non-migrated cells were removed from the upper chamber with a cotton swab. Stained filters were cut out of the chamber and mounted onto slides using Permount (Fisher). The number of migrated cells was measured using microscopy (three fields from each membrane were captured using a 40x objective), and images were captured with a CCD camera using SPOT software. Total migration per membrane was quantified from the captured images using Scion Image software (National Institutes of Health). All experiments were run in triplicate. The unpaired Student t-test was used for statistical analysis.

LLC tumors [4] = assay: Lewis lung carcinoma (LLC) tumor model, systemic s.c. treatment; format: in vivo, C57B1/6J mice; conditions: peptide at 14 mg/kg/d
[5] = tested on: vessel density (CD31) of LLC tumors; assay: Vessel density (CD31 staining) of LLC tumor sections; format: in vivo, C57B1/6J mice; conditions: peptide 2.8 mg/kg/d s.c. twice a day
Procedure: To determine the effect on angiogenesis after mP1 treatment, LLC tumors treated with mP1, mP2, and endostatin at equimolar concentration were analyzed for vessel density (CD31). […] In each case, peptides were administered twice a day s.c. and LLC tumor sections from day 13 were formalin-fixed paraffin-embedded and then stained with CD31 (PECAM). FIG. 2C show the determination of vessel density and the Y axis is expressed as % CD31/high power field (hpf).
To determine if Zn binding is also important for the anti-tumor property of endostatin, mP1 and mP1-H1/3A were tested using the LLC tumor model. Peptides were administered twice a day (s.c.) at a dose of 2.8 mg/kg/d. Peptide mPl inhibited LLC by 42% (p =0.031), whereas mPl-H1/3A had no effect (FIG. 3C). To determine if there was a difference in angiogenesis, vessel density (CD31) of LLC tumors was analyzed after mP1 and mP1-H1/3A treatment. […] The unpaired Student t test was used for statistical analysis.
Tumors were fixed in 10% buffered Formalin overnight at 4° C. The next day, tumors were washed three times in PBS and paraffin-embedded. Sections (5 μm) were permeabilized with 40 μg/ml proteinase K (Roche Diagnostics Corp.) in 0.2 M Tris-HCl buffer (pH 7.6) for 25 minutes at 37° C. and washed with PBS. PECAM (1:250) was incubated at 4° C. overnight. […] Vessel density (average of three fields) was determined by IPLab software. […]

[6] = Water solubility of peptides; format: physicochemical; conditions: high concentrations, read-out: concentration at which not water soluble
Procedure: Peptides were approximately 1/7th-1/8th the size of full length endostatin. Three cysteines, 33,165,173, were replaced by alanines (underlined in Table 1), and cysteinel35 was omitted, to prevent the formation of disulfide bonds. Two additional lysines were added at the C-terminal of hP8 to increase its solubility (double underlined). Most peptides were water soluble, except for hP2 at high concentrations (>2.5 mg/ml). Also, all peptides were approximately 70% pure. However, no difference in tumor inhibition was observed when peptides of more than 95% purity were used.

Molecule: ATAQDFQPVLHLVALNTPLSGGMRGIR [mP1-H1/3A]
- anti-tumor effect on LLC (LLC tumors [1]; 2.8 mg/kg/day): no effect; also recorded: essentially not affected

Molecule: GSEGPLKPGARIFSFDGKDVLRHPT [hP5]
- inhibition of BxPC-3 tumor [2]: 29%

Molecule: GSQGQVQPGARIFSFDGRDVLRHPA [mP5]
- anti-tumor effect on LLC (LLC tumors [1]): No or insignificant activity

Molecule: HPAWPQKSVWHGSDPSGRRLMESY [mP6]
- anti-tumor effect on LLC (LLC tumors [1]): No or insignificant activity

Molecule: HPTWPQKSVWHGSDPNGRRLTESY [hP6]
- concentration at which VEGF-induced EC migration was inhibited [3]: 100 ng/mL and 200 ng/mL
- inhibition of EC migration ([3]; concentrations lower than 100 ng/ml): no inhibition
- inhibition of EC migration ([3]; several doses): inhibited EC migration but at higher concentrations than hPl

Molecule: HSHRDFQPVLHLVALNSPLSGGMRG [hP1]
- inhibition of BxPC-3 tumor [2]: 39%
- concentration at which VEGF-induced EC migration was inhibited [3]: 25 ng/mL
- inhibition of EC migration ([3]; at 500 ng/ml): no inhibition
- inhibition of EC migration ([3]; several doses): more potent in inhibiting EC migration than full-length endostatin

Molecule: HTHQDFQPVLHLVAL [mP1-15]
- anti-tumor effect on LLC (LLC tumors [1]): inhibit tumor volume

Molecule: HTHQDFQPVLHLVALNTPLS [mP1-20]
- anti-tumor effect on LLC (LLC tumors [1]): inhibit tumor volume

Molecule: HTHQDFQPVLHLVALNTPLSGGMRGIR [mP1]
- inhibition of LLC tumor (LLC tumors [1]; 2.8 mg/kg/day): 44% and 42%
- inhibition of LLC tumor formation (LLC tumors [4]): inhibited LLC tumor formation less than at 2.8 mg/kg/d

Molecule: MRGIRGA DFQAFQQARA VGLSGTFR (MRGIRGADFQAFQQARAVGLSGTFR) [mP2]
- anti-tumor effect on LLC (LLC tumors [1]): No or insignificant activity
- effect on vessel density (CD31) [5]: no effect
- inhibition of LLC tumor formation (LLC tumors [4]): could inhibit LLC tumor formation as well as mP1 at 2.8 mg/kg/d

Molecule: MRGIRGADFQAFQQARAVGLAGTFR [hP2]
- solubility [6]: > 2500 µg/mL

Molecule: TFRAFLSSRLQDLYSIVRRADRAAV [hP3]
- anti-tumor effect on BxPC-3 ([2]; 28 days): failed to inhibit tumor growth

B1: human endostatin (EntreMed): recombinant human endostatin, gift from EntreMed Corporation (protein, UniProt P39060 1572-1754, looked up)
Endostatin: HSHRDFQPVLHLVALNSPLSGGMRGIRGADFQCFQQARAVGLAGTFRAFLSSRLQDLYSIVRRADRAAVPIVNLKDELLFPSWEALFSGSEGPLKPGARIFSFDGKDVLRHPTWPQKSVWHGSDPNGRRLTESYCETWRTEAPSATGQASSLLGGRLLGQSAASCHHAYIVLCIENSFMTASK
modifications: Endostatin
notes: recombinant human endostatin, gift from EntreMed Corporation
- concentration at which VEGF-induced EC migration was inhibited [3]: 200 ng/mL
- concentration of best (slightly better) inhibition of EC migration ([3]; U-shaped response): 200 ng/mL
- inhibition of EC migration ([3]; at 100 ng/ml): not at 100 ng/ml
